The values that follow come from PMC11456916, “A screen for cell envelope stress uncovers an inhibitor of prolipoprotein diacylglyceryl transferase, Lgt, in Escherichiacoli” (iScience, 2024).

The structures appear in SMILES notation.

The target in test [1] is T1, prolipoprotein diacylglyceryl transferase, Lgt (Escherichia coli, UniProt P60955).
T1 construct: Expression, purification, and in vitro Lgt biochemical assay were conducted as described by Diao et al; made in house
In words: In vitro Lgt biochemical assay (phosphatidylglycerol and Pal-IAAC peptide substrates). Also noted: species or system E. coli. From the text:
With both genetic and phenotypic evidence supporting MAC-0452936 inhibiting Lgt in E. coli, we next investigated whether MAC-0452936 could inhibit Lgt activity in vitro. Recently, a biochemical assay for Lgt activity was developed using phosphatidylglycerol and Pal-IAAC peptide as substrates.[12] […] As similar results were obtained using two different Lgt enzyme preparations, the inhibition observed by MAC-0452936 was not dependent on the preparation of the lipid matrix. Together, we present genetic, phenotypic, and biochemical evidence that MAC-0452936 inhibits the growth of E. coli through inhibition of Lgt. MAC-0452936 represents a previously undiscovered small molecule inhibitor of bacterial Lgt, and the oxime ester represents a promising chemical scaffold for antibiotic discovery.
Expression, purification, and in vitro Lgt biochemical assay were conducted as described by Diao et al.[12]

Test [2] deals with E. coli ΔtolC-pore. Kind of test: Live cell fluorescence microscopy, cell width. In kind it is cell-based. The note with it: increasing concentrations, 1 h, DAPI and FM4-64 stain. Here is the method:
Figure 4 MAC-0452936 inhibited prolipoprotein diacylglyceryl transferase, Lgt (A) Growth inhibition of E. coli ΔtolC-pore, three independent MAC-0452936 resistance mutants with a V109A substitution in Lgt (2,959,071A→G), a mutant with an A37T substitution (2,959,288C→T), and a mutant with a G138A substitution (2,958,984C→G). The experiment was conducted in biological triplicate. Data are represented as mean ± SEM. (B) Structure of Lgt from E. coli with two phosphatidyl-glycerol (PG) moieties bound (PDB: 5AZB).[49] Mutated residues from spontaneous resistance mutants are highlighted in blue on proximal α-helices, with the blue sphere highlighting the space in between the mutated residues where both PG moieties reside. […] The width of at least 240 cells was measured at each MAC-0452936 concentration, with specific n values for each concentration of MAC-0452936 listed in the figure. […]
An overnight culture of E. coli ΔtolC-pore was prepared, then diluted (1:100) into fresh LB media and grown to the mid-exponential phase of growth (OD600 ∼0.5). […] Samples were imaged using a Nikon Eclipse Ti inverted microscope at 100× magnification, with a minimum of 200 cells counted per image. Images were quantified with ImageJ, using the following macro. […]

T1 sequence (P60955 whole entry): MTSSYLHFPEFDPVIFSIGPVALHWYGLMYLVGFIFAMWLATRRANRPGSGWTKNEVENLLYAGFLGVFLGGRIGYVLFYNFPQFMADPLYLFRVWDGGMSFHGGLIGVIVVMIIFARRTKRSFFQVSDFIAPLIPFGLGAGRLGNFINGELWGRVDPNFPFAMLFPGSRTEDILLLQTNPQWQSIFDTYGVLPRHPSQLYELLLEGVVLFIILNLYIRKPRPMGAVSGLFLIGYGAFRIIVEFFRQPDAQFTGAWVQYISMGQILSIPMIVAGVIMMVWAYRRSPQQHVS

By IC50 is commonly meant the midpoint of a concentration-inhibition curve. Read a high IC50 as weaker potency in that assay. With `COc1ccc(C(=O)O/N=C(\c2cccs2)C(C)(C)C)cc1` [MAC-0452936, (Z)-2-Pivaloylthiophene O-(4-methoxybenzoyl) oxime], the IC50 was 590 nM in test [1] (in vitro Lgt inhibition Amph-Lgt IC50, Lgt purified using amphipol lipid matrix) and 1450 nM in test [1] (in vitro Lgt inhibition DDM-Lgt IC50, Lgt purified using DDM lipid matrix). For the same compound, the “effect on cell width and morphology” value in test [2] is on record as “dose-dependent increase in cell width”.
